Data on 91 molecules can be found in the SangsterLogP compilation.

Assay in one data set: not given
Settings: not given
The molecule `O=C(Oc1ccc(-c2ccccc2)cc1)C1OC(O)C(O)C(O)C1O` (stereo unspecified) showed a logP of 1.79.

For `O=C(Oc1ccccc1)C1OC(O)C(O)C(O)C1O` (stereo unspecified), the logP is -0.69.

The molecule `O=C(Oc1ccc2cc(Br)ccc2c1)C1OC(O)C(O)C(O)C1O` (stereo unspecified) came in with a log partition coefficient (logP) of 1.97.

In turn, `Cc1ccc(OC(=O)C2OC(O)C(O)C(O)C2O)cc1` (stereo unspecified) yielded a logP of 0.37.

`COc1ccc(OC(=O)C2OC(O)C(O)C(O)C2O)cc1` (stereo unspecified) showed a logP of -0.01.

A short description of another data set: method code SF-AS, from DOI: 10.1016/s0045-6535(98)00368-3. To be noted: pH 2.0.
Turning to `COC(=O)c1ccccc1S(=O)(=O)NC(=O)Nc1nc(OC)cc(OC)n1`, the log distribution coefficient (logD) was 1.78.

A short description of the next data set: method code SF-HPLC, from PMID: 1293941.
Settings: not given
With `CCCCCCCCOC(=O)c1ccc(N)cc1`, the lipophilicity (logP) was found to be 5.02.

As for `CCCOC(=O)c1ccc(N)cc1`, the logP was 2.43.

`CCCCCCOC(=O)c1ccc(N)cc1`: the logP amounted to 3.95.

In turn, `CCCCCCCOC(=O)c1ccc(N)cc1` showed a logP of 4.5.

With `CCCCCOC(=O)c1ccc(N)cc1`, the logP came out at 3.48.

Assay in a further data set: not given
Settings: not given
This is another data set of the same source.
For the molecule `COC(=O)CS(=O)c1ccccc1[N+](=O)[O-]` (stereo unspecified), the logP worked out at 0.98.

Regarding `COC(=O)CSc1ccc([N+](=O)[O-])cc1`, the logP is 2.29.

Molecule `COC(=O)CS(=O)c1ccc([N+](=O)[O-])cc1` (stereo unspecified) gave a logP of 0.98.

The molecule `COC(=O)CS(=O)(=O)c1ccc([N+](=O)[O-])cc1` registered a logP of 0.92.

In turn, `COC(=O)CS(=O)c1ccc(Cl)cc1[N+](=O)[O-]` (stereo unspecified) came in with a logP of 1.69.

Assay in the next data set: not given
Settings: not given
The source holds these as a separate data set.
`FC(F)(F)c1cccc(C2CNCCO2)c1` (stereo unspecified) had a logP of 2.18.

Regarding `c1ccc(C2CNCCO2)cc1` (stereo unspecified), the log partition coefficient (logP) was 1.11.

As to `CC(C)N1CCOC(c2ccccc2)C1` (stereo unspecified), the logP came out at 2.3.

`Fc1cccc(C2CNCCO2)c1` (stereo unspecified) yielded a log partition coefficient (logP) of 1.42.

Regarding `c1ccc(CN2CCOCC2)cc1`, the logP was determined as 1.58.

Assay in the next data set: not given
Settings: not given
This is another data set of the same source.
Consider `c1ccc2c(c1)cnn2C12CC3CC(CC(C3)C1)C2`, for which the log partition coefficient (logP) came to 4.33.

Regarding `c1ccc2c(c1)ncn2C12CC3CC(CC(C3)C1)C2`, the logP was determined as 3.64.

Take `c1cnn(C23CC4CC(CC(C4)C2)C3)c1`: the logP amounted to 3.05.

In the case of `c1ccc2nn(C34CC5CC(CC(C5)C3)C4)nc2c1`, the logP was found to be 4.3.

Molecule `c1cn(C23CC4CC(CC(C4)C2)C3)cn1` returned a logP of 2.9.

A further data set can be described thus: method code SF-AS, from DOI: 10.1128/aac.27.1.84, PMID: 2580479.
Settings: not given
As to `CO[C@@]1(NC(=O)Cc2cccs2)C(=O)N2C(C(=O)O)=C(COC(N)=O)CS[C@@H]21`, the log partition coefficient (logP) was -0.02.

`CCN1CCN(C(=O)N[C@@H](C(=O)N[C@@H]2C(=O)N3C(C(=O)O)=C(CSc4nnnn4C)CS[C@H]23)c2ccc(O)cc2)C(=O)C1=O`: the log partition coefficient (logP) is -0.74.

For `CC(=O)OCC1=C(C(=O)O)N2C(=O)[C@@H](NC(=O)CC#N)[C@H]2SC1`, the log partition coefficient (logP) is -0.45.

`CCN1CCN(C(=O)N[C@@H](C(=O)N[C@@H]2C(=O)N3[C@@H]2SC(C)(C)[C@@H]3C(=O)O)c2ccccc2)C(=O)C1=O` showed a lipophilicity (logP) of 0.5.

The data set is the same for the next values; noted with them: pH 2.0.
In the case of `Cn1nnnc1SCC1=C(C(=O)O)N2C(=O)[C@@H](NC(=O)CSCC#N)[C@H]2SC1`, the logD is -0.62.

The nature of a further data set: method code SF-AS, from DOI: 10.1002/em.2850200210, PMID: 1505530.
Settings: not given
`O=[N+]([O-])c1cccc2c([N+](=O)[O-])cccc12`: the logP is 2.58.

`O=[N+]([O-])c1ccc2c(c1)Cc1cc([N+](=O)[O-])ccc1-2` showed a logP of 3.35.

Regarding `O=[N+]([O-])c1cccc2cccnc12`, the logP was 1.44.

As to `O=[N+]([O-])c1ccc2ccccc2c1`, the logP came out at 3.24.

In turn, `O=C1c2cc([N+](=O)[O-])ccc2-c2ccc([N+](=O)[O-])cc21` had a log partition coefficient (logP) of 2.84.

Another data set can be described thus: method code SF-AS, from DOI: 10.1007/s001289900104, PMID: 8661852.
Settings: not given
With `CN(c1ccccc1)c1nc(Cl)nc(Cl)n1`, the logP came to 3.07.

Regarding `[N-]=[N+]=Nc1nc(N=[N+]=[N-])nc(Nc2ccccc2)n1`, the logP came out at 3.88.

The molecule `O=[N+]([O-])c1c(O)nc(-c2ncncn2)nc1O` yielded a logP of 2.02.

Molecule `Clc1ncc(-c2ncncn2)c(Cl)n1` yielded a logP of 1.32.

`Clc1nc(Cl)nc(Nc2ccccc2)n1`: the logP was 3.03.

A further data set can be described thus: method code SF-AS, from DOI: 10.1016/j.bioorg.2006.09.003, PMID: 17078995. Particulars: pH 7.4.
`CCCC(=O)OCCc1ccc(O)c(O)c1` showed a log distribution coefficient (logD) of 1.77.

In turn, `CCCC(=O)OCCc1ccc(O)c(OC)c1` showed a logD of 2.54.

`CCC(=O)OCCc1ccc(O)c(O)c1` displayed a logD of 1.2.

Take `Cc1cc(CCO)ccc1O`: the logD came out at 0.5.

The molecule `CC(=O)OCCc1ccc(O)c(O)c1` came in with a logD of 0.95.

A short description of a further data set: method code SF-AS, from Jha, T.; Debnath, A.; Mazumdar, A.; Sengupta, C.; De, A. (1986). Hansch analysis of antineoplastic agents, 5-N-substituted-2-p-substituted benzenesulfonyl-L-glutamines. Ind. J. Chem., Sect. B, ….
Settings: not given
Regarding `CCNC(=O)CCC(NS(=O)(=O)c1ccccc1)C(=O)O` (stereo unspecified), the lipophilicity (logP) was determined as 0.38.

`Cc1ccc(S(=O)(=O)NC(CCC(=O)NC2CCCCC2)C(=O)O)cc1` (stereo unspecified) showed a logP of 0.32.

Molecule `CCCCCNC(=O)CCC(NS(=O)(=O)c1ccccc1)C(=O)O` (stereo unspecified) showed a logP of -0.16.

Turning to `CCCNC(=O)CCC(NS(=O)(=O)c1ccccc1)C(=O)O` (stereo unspecified), the logP was -0.08.

Molecule `CCCCCCNC(=O)CCC(NS(=O)(=O)c1ccc(C)cc1)C(=O)O` (stereo unspecified) had a logP of 0.92.

A short description of the next data set: method code SF-AS, from DOI: 10.1016/j.ejps.2010.09.003, PMID: 20854904. To be noted: pH 10.0.
For the molecule `CN(C)CCC(=O)c1ccccc1`, the log distribution coefficient (logD) was determined as 1.77.

On to `CCN(CC)CCC(=O)c1ccccc1`, for which the pH-dependent lipophilicity (logD) is 1.59.

In the case of `O=C(CCN1CCCC1)c1ccccc1`, the logD was found to be 1.91.

The molecule `O=C(CCN1CCCCC1)c1ccccc1` returned a pH-dependent lipophilicity (logD) of 2.4.

Staying with this data set, now noted: pH 11.0.
Regarding `O=C(CCNC1CCCCC1)c1ccccc1`, the logD came out at 2.57.

Assay in a further data set: not given
Settings: not given
The source holds these as a separate data set.
On to `Nc1ccc(-c2ccc(N)cc2)cc1`, for which the logP was 1.53.

As for `CN(C)Cc1ccccc1`, the logP turned out to be 1.91.

Turning to `CCn1ccc(NS(=O)(=O)c2ccc(N)cc2)nc1=O`, the lipophilicity (logP) was -0.2.

Molecule `CCN(CC)CC` displayed a logP of 1.36.

`CC(C(=O)O)c1ccc(N2CC=CC2)c(Cl)c1` (stereo unspecified) showed a log partition coefficient (logP) of 3.58.

The next data set is described as follows: method code SF, from DOI: 10.1248/yakushi1947.96.10_1169, PMID: 1033993. Particulars: pH 0.7.
For the molecule `CCC1(CCC(C)C)C(=O)NC(=O)N(C)C1=O` (stereo unspecified), the log distribution coefficient (logD) was 2.45.

As to `CCCC(C)C1(CC)C(=O)NC(=O)N(C)C1=O` (stereo unspecified), the pH-dependent lipophilicity (logD) was found to be 2.45.

In the case of `C=CCC1(CC=C)C(=O)NC(=O)N(C)C1=O`, the logD amounted to 1.55.

`CCCC1(CC)C(=O)NC(=O)N(C)C1=O` (stereo unspecified) registered a logD of 1.65.

`CCC1(CC)C(=O)NC(=O)N(C)C1=O` gave a logD of 1.15.

A further data set is described as follows: from Rich, R. (1990). Partition coefficients of quinones and their relation to biochemical reactivity. In Lenaz, G. (Ed.), Highlights in Ubiquinone Research: Proceedings of the International Symposium, ….
Settings: not given
In the case of `Cc1c(O)ccc(O)c1C`, the logP was 1.36.

Take `Cc1c(C)c(O)c(C)c(C)c1O`: the logP was 1.8.

With `Cc1cc(O)cc(C)c1O`, the lipophilicity (logP) turned out to be 1.

Molecule `Cc1cc(O)ccc1O` had a logP of 0.91.

The molecule `CC1=CC(=O)C=C(C)C1=O` gave a logP of 0.95.

A further data set in a line: method code SF-AS, from DOI: 10.1002/jps.2600630206, PMID: 4204981.
Settings: not given
Consider `O=C(O)C1Cc2cc(Cl)ccc2O1` (stereo unspecified), for which the logP is 2.11.

The molecule `O=C(O)C1COc2ccccc2O1` (stereo unspecified) returned a logP of 1.4.

Consider `O=C(O)C1CCc2cc(Cl)ccc2O1` (stereo unspecified), for which the logP came to 2.4.

Molecule `CC(Oc1ccc(Cl)cc1)C(=O)O` (stereo unspecified) yielded a lipophilicity (logP) of 2.31.

As to `O=C1CC(C(=O)O)Oc2ccc(Cl)cc21` (stereo unspecified), the log partition coefficient (logP) was determined as 1.77.

The nature of another data set: method code SF-AS, from DOI: 10.1007/bf01964075. Particulars: pH 2.1.
For `Oc1cccc(O)c1`, the pH-dependent lipophilicity (logD) is 0.83.

`CC[C@H](C)[C@H](NC(C)=O)C(=O)NC` came in with a logD of 0.14.

Regarding `CNC(=O)C1CCCN1C(C)=O` (stereo unspecified), the logD was -1.19.

For the molecule `CNC(=O)[C@@H](NC(C)=O)C(C)C`, the pH-dependent lipophilicity (logD) is -0.35.

Take `CNC(=O)[C@H](Cc1ccc(O)cc1)NC(C)=O`: the pH-dependent lipophilicity (logD) was -0.32.

Assay in the next data set: not given
Settings: not given
The source holds these as a separate data set.
In the case of `OCCOc1cccc2ccccc12`, the logP came to 2.5.

Molecule `COC(=O)c1ccccc1S(=O)(=O)NC(=O)Nc1nc(C)cc(C)n1` had a logP of 1.3.

Molecule `O=C(O)CCCCCOc1cccc2ccccc12` yielded a logP of 4.5.

Molecule `O=C(O)CCCCOc1cccc2ccccc12` yielded a log partition coefficient (logP) of 4.

As to `O=C(O)CCCOc1cccc2ccccc12`, the logP came to 3.5.

Assay in a further data set: not given
Settings: not given
The source holds these as a separate data set.
Molecule `Cc1cc(Cc2ccc(Cl)cc2Cl)c(Cl)cc1Cl` returned a log partition coefficient (logP) of 6.77.

In turn, `Cc1cc(Cc2c(Cl)cccc2Cl)c(Cl)cc1Cl` returned a lipophilicity (logP) of 6.53.

`Cc1c(Cl)ccc(Cc2c(Cl)cccc2Cl)c1Cl` returned a log partition coefficient (logP) of 6.58.

`Cc1c(Cl)ccc(Cc2ccc(Cl)cc2Cl)c1Cl` showed a lipophilicity (logP) of 6.85.

`Cc1cc(Cl)c(Cl)cc1Cc1c(Cl)cccc1Cl` came in with a lipophilicity (logP) of 6.03.
